According to ChEMBL document CHEMBL4507276 (2021):

Legend:
[1] = biological target: NT-3 growth factor receptor (Homo sapiens) (UniProt Q16288); conditions: Compound concentration 1000.0 nM
[2] = biological target: High affinity nerve growth factor receptor (Homo sapiens) (UniProt P04629); experiment: NTRK1 Invitrogen selectivity data (BI); conditions: Compound concentration 3.0 uM
[3] = biological target: Beta-1 adrenergic receptor (Homo sapiens) (UniProt P08588); experiment: BETA1/HU Eurofins-Panlabs selectivity data (BI); conditions: Compound concentration 10.0 uM
[4] = biological target: Serine/threonine-protein kinase 24 (Homo sapiens) (UniProt Q9Y6E0); experiment: STK24 Invitrogen selectivity data (BI); conditions: Compound concentration 3.0 uM
[5] = biological target: Vasoactive intestinal polypeptide receptor 1 (Homo sapiens) (UniProt P32241); experiment: VIP1/VPAC1/H Cerep selectivity data (BI); conditions: Compound concentration 20.0 uM
[6] = biological target: Sodium-dependent serotonin transporter (Homo sapiens) (UniProt P31645); experiment: 5HTTRANS/HU Eurofins-Panlabs selectivity data (BI); conditions: Compound concentration 10.0 uM
[7] = biological target: Cyclin-dependent kinase 1/cyclin B (Homo sapiens) (UniProt P06493+P14635+Q8WWL7+O95067); experiment: CDK1/CYCLINB Invitrogen selectivity data (BI); assay type: protein-complex assay; conditions: Compound concentration 3.0 uM
[8] = biological target: Nociceptin receptor (Homo sapiens) (UniProt P41146); experiment: ORL1/H Cerep selectivity data (BI); conditions: Compound concentration 20.0 uM
[9] = biological target: Proto-oncogene tyrosine-protein kinase ROS (Homo sapiens) (UniProt P08922); experiment: ROS1 Invitrogen selectivity data (BI); conditions: Compound concentration 3.0 uM
[10] = biological target: T1, Dual specificity protein kinase TTK (Homo sapiens) (UniProt P33981); experiment: TTK Invitrogen selectivity data (BI); conditions: Compound concentration 3.0 uM
T1 sequence (whole entry): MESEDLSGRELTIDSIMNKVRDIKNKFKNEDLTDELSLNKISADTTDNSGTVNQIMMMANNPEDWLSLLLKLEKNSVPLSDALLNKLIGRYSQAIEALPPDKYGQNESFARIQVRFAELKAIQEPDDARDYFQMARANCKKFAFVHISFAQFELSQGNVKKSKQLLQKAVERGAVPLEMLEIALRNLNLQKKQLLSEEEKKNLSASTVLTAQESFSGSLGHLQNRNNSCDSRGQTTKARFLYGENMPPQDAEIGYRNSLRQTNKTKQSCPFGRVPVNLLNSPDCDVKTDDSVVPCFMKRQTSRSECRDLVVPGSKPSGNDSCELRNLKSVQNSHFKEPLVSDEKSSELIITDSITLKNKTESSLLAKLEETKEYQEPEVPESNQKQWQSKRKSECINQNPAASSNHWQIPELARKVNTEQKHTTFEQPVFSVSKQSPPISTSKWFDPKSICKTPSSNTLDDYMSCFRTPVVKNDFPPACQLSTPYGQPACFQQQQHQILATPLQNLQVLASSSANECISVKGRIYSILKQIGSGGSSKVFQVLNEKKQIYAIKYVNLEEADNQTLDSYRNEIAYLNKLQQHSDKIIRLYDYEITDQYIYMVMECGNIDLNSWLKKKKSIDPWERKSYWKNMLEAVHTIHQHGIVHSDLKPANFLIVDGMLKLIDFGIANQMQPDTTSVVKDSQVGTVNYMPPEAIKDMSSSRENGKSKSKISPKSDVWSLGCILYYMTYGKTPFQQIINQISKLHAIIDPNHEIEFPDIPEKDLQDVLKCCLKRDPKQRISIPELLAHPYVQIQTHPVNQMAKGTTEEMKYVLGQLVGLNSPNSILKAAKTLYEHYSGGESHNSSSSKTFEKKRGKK

[11] = biological target: T2, Serine/threonine-protein kinase 3 (Homo sapiens) (UniProt Q13188); experiment: STK3 Invitrogen selectivity data (BI); conditions: Compound concentration 3.0 uM
T2 sequence (whole entry): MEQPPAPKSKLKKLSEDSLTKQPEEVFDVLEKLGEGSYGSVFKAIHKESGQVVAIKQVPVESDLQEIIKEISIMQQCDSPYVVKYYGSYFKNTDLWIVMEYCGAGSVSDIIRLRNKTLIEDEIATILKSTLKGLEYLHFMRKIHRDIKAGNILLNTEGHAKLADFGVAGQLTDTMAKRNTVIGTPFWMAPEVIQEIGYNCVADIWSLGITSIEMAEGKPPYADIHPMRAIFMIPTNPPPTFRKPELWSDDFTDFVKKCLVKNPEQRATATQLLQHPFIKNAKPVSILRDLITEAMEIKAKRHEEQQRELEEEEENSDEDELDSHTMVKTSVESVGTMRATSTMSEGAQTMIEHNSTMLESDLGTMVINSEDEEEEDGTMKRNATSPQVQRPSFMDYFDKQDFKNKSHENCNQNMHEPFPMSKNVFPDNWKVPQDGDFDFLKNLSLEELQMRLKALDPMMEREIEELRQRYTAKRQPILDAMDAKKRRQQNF

[12] = biological target: Casein kinase I isoform gamma-2 (Homo sapiens) (UniProt P78368); experiment: CSNK1G2 Invitrogen selectivity data (BI); conditions: Compound concentration 3.0 uM
[13] = biological target: Phosphorylase b kinase gamma catalytic chain, liver/testis isoform (Homo sapiens) (UniProt P15735); experiment: PHKG2 Invitrogen selectivity data (BI); conditions: Compound concentration 3.0 uM
[14] = biological target: Glutamate NMDA receptor (Rattus norvegicus) (UniProt P35439+Q00959+Q00960+Q00961+Q62645+Q8VHN2+Q9R1M7); experiment: NMDAAGSI/RA Eurofins-Panlabs selectivity data (BI); assay type: protein-complex assay; conditions: filed as agonist, Compound concentration 10.0 uM
[15] = biological target: T3, Serine/threonine-protein kinase Sgk2 (Homo sapiens) (UniProt Q9HBY8); experiment: SGK2 Invitrogen selectivity data (BI); conditions: Compound concentration 3.0 uM
T3 sequence (whole entry): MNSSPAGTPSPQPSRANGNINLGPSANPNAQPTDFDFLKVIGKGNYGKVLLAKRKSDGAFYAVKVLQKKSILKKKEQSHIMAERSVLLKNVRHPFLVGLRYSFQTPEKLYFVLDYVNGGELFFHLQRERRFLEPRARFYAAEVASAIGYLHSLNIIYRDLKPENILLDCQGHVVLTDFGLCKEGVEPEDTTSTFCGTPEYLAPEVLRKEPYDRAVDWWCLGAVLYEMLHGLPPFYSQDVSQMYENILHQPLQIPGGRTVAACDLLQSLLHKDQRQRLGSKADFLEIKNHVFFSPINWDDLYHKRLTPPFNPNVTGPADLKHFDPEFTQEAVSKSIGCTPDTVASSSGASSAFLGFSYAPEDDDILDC

[16] = biological target: Sodium/potassium-transporting ATPase subunit alpha-1 (Sus scrofa) (UniProt P05024); experiment: ATPASE(NA/K) Cerep selectivity data (BI); conditions: Compound concentration 20.0 uM
[17] = biological target: Epidermal growth factor receptor (Homo sapiens) (UniProt P00533); experiment: EGF/HU Eurofins-Panlabs selectivity data (BI); conditions: Compound concentration 10.0 uM
[18] = biological target: Proto-oncogene tyrosine-protein kinase Src (Homo sapiens) (UniProt P12931); experiment: SRC Invitrogen selectivity data (BI); conditions: Compound concentration 3.0 uM
[19] = biological target: Phosphatidylinositol 4-phosphate 3-kinase C2 domain-containing subunit alpha (Homo sapiens) (UniProt O00443); experiment: PIK3C2A Invitrogen selectivity data (BI); conditions: Compound concentration 3.0 uM
[20] = biological target: Protein kinase C alpha type (Homo sapiens) (UniProt P17252); experiment: PRKCA Invitrogen selectivity data (BI); conditions: Compound concentration 3.0 uM
[21] = biological target: Ribosomal protein S6 kinase alpha-2 (Homo sapiens) (UniProt Q15349); experiment: RPS6KA2 Invitrogen selectivity data (BI); conditions: Compound concentration 3.0 uM

Measured: residual activity

Chain of Beta-1 adrenergic receptor (Homo sapiens) (P08588 whole entry, looked up): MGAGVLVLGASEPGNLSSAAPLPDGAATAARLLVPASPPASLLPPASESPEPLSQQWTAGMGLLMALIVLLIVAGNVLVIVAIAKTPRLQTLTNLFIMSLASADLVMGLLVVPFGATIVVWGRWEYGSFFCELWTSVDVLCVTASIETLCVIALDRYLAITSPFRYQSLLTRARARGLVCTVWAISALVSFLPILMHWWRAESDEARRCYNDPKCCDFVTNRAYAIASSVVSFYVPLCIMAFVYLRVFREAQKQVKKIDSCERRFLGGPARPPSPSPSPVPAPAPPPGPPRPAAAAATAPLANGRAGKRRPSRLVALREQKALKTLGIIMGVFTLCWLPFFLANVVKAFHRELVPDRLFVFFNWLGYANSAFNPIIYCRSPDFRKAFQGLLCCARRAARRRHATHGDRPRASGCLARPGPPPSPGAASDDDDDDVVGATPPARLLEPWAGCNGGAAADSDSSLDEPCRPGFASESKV
Chain of Proto-oncogene tyrosine-protein kinase ROS (Homo sapiens) (P08922 whole entry): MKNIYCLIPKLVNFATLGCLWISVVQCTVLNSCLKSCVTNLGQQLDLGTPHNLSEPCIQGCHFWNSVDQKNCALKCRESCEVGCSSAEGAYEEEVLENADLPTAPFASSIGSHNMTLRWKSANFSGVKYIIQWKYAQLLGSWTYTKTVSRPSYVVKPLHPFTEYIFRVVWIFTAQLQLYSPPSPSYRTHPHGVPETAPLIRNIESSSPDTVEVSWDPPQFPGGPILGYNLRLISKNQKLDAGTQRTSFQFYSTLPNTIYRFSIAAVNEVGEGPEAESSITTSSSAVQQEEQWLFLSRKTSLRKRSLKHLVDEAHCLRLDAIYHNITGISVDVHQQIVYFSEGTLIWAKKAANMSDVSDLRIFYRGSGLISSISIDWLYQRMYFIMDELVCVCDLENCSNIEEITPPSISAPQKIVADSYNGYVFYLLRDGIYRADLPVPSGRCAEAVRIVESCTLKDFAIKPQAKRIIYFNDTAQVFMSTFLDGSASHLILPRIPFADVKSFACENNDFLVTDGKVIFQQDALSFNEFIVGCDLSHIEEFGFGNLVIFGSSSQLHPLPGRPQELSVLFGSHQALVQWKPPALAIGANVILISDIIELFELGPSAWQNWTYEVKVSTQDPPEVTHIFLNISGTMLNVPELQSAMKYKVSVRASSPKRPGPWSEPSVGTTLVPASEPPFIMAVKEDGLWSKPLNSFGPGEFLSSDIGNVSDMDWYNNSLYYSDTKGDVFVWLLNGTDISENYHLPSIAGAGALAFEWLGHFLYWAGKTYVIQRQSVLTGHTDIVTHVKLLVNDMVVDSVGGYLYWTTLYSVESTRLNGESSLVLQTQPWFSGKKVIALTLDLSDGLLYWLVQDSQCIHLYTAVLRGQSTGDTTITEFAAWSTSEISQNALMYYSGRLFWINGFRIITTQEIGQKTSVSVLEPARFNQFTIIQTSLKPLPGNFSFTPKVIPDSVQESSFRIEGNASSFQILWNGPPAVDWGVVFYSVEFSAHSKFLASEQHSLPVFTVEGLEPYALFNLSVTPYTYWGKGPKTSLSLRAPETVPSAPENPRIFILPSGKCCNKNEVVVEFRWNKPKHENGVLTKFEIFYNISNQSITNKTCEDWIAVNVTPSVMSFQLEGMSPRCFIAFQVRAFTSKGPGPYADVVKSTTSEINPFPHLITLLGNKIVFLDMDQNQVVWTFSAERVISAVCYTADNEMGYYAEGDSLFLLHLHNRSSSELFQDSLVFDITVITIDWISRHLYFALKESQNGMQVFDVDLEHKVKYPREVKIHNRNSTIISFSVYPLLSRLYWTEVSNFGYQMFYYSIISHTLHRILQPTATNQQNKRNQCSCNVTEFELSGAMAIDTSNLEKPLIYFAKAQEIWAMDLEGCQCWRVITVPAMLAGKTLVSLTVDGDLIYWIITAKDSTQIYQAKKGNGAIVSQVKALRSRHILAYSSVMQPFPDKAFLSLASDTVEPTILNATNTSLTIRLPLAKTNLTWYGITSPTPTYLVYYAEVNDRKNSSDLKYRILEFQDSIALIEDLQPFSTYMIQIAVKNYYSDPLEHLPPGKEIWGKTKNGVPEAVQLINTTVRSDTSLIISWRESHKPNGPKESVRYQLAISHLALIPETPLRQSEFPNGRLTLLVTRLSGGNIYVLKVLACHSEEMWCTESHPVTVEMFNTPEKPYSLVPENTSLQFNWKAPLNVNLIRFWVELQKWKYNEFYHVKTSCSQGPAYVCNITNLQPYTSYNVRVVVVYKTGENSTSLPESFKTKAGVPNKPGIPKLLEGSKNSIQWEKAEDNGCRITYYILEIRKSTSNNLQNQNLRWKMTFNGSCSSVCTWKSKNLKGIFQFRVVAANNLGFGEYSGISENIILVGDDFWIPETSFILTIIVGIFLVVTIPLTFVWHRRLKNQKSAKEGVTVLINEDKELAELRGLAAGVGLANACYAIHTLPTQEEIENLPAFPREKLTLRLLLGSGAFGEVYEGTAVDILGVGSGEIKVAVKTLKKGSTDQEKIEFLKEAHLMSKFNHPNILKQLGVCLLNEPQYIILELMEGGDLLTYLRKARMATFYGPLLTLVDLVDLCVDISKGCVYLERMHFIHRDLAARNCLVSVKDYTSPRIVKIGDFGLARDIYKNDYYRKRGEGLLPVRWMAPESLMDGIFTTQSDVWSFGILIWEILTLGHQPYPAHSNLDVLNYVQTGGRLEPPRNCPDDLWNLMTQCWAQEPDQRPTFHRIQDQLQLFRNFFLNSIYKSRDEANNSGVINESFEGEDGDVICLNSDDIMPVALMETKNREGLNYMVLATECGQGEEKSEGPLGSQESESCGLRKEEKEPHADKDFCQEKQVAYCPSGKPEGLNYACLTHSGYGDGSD
Chain of Ribosomal protein S6 kinase alpha-2 (Homo sapiens) (Q15349 whole entry): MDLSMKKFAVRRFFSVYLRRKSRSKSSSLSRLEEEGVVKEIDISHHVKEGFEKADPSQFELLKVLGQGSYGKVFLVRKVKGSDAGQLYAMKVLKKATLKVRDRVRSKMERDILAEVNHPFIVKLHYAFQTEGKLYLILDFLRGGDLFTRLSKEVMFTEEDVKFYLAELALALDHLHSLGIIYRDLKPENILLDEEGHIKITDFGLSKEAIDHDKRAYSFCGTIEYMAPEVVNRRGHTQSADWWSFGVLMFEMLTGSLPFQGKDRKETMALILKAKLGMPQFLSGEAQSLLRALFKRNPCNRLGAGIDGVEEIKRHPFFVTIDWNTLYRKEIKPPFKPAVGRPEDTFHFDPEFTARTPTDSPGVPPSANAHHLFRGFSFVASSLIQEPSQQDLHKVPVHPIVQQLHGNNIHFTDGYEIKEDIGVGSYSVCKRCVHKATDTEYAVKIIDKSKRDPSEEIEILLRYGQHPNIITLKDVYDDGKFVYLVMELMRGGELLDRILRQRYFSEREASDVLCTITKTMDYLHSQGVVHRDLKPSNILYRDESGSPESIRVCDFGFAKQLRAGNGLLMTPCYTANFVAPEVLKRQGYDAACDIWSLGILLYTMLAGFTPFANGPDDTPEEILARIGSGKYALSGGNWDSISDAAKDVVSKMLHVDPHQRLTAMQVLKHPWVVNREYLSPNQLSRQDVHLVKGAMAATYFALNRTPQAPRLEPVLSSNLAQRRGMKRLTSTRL
Chain of Proto-oncogene tyrosine-protein kinase Src (Homo sapiens) (P12931 2-536 limits assumed): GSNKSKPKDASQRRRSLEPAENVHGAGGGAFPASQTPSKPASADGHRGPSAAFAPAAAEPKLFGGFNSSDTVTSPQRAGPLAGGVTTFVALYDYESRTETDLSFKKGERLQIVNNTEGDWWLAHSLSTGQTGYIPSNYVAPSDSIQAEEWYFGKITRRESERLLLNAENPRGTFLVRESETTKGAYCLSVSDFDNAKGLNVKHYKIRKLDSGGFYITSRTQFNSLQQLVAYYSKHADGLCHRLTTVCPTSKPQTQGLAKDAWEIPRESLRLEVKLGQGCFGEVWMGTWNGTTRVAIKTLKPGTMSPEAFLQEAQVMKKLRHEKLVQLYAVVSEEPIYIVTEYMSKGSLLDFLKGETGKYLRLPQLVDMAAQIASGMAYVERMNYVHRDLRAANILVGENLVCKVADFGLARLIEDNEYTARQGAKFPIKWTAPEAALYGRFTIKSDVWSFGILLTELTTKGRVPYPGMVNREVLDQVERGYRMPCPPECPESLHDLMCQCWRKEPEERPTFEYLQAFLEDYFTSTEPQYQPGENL

CN(C)C(=O)Cn1cc(-c2nc(C3(c4ccc(-c5cnc(N)nc5)cc4)CC3)no2)cn1 [BI 0153]
inactive: [1] 97%

CN(C)C(=O)Cn1cc(-c2nc([C@@](C)(c3ccc(-c4cnc(N)nc4)cc3)C3CC3)no2)cn1 [BI 665915]
inactive: [2] 95.5% | [3] 103% | [4] 100% | [5] 109% | [6] 106% | [7] 99% | [8] 91% | [9] 97.5% | [10] 98% | [11] 104% | [12] 98.5% | [13] 97.5% | [14] 102% | [15] 97% | [16] 99% | [17] 103% | [18] 90.5% | [19] 104% | [20] 102% | [21] 100%
